Measured values from patent US7989483B2, “4-heteroarylimidazole-2-thione tyrosinase inhibitors and pharmaceutical/cosmetic applications thereof” (Galderma Research & Development, priority 2007, dated 2011).

Target: T1, tyrosinase (Mus musculus, UniProt P11344)
T1 construct: the supernatant obtained constitutes the cell lysate used as tyrosinase source in the enzymatic assay; endogenous in cells; host or cells: B16F1 murine melanoma cells (alpha-MSH stimulated), detergent lysate supernatant
T1 sequence (P11344 19-533): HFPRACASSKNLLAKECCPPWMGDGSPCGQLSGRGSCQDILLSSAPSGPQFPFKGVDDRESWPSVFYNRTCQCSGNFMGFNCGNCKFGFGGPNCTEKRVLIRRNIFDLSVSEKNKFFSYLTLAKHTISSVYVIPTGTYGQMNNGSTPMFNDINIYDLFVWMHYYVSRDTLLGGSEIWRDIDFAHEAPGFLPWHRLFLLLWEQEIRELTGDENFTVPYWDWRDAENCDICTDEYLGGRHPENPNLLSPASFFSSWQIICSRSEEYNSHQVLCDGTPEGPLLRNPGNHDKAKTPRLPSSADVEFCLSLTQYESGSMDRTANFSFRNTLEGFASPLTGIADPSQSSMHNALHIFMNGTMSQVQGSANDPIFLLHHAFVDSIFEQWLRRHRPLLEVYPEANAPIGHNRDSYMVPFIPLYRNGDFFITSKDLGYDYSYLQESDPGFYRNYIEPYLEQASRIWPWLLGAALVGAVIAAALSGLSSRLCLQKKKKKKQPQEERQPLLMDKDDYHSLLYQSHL
Assay: Tyrosinase activity inhibition assay (B16F1 cell lysate, L-tyrosine substrate, MBTH, 520 nm)
Type: biochemical
Settings: lysate of B16F1 cells (murine melanoma line), L-DOPA cofactor, 37° C., reading at 520 nm after 6 hours, read-out: Tyrosine hydroxylase/Dopa oxidase IC50
Experimental: The activity of the inhibitors is measured starting from a lysate of B16F1 cells (murine melanoma line). In the presence of the L-tyrosine substrate, the tyrosinase present in these cells catalyses the hydroxylation of L-tyrosine to give L-DOPA and then the oxidation of the L-DOPA to give dopaquinone. In the presence of MBTH (3-methyl-2-benzothiazolinone hydrazone), the dopaquinone is trapped so as to form a pink complex which absorbs at 520 nm.
The B16F1 cells are cultured in DMEM medium+10% foetal calf serum+10^−9 M α-MSH for 4 days at 37° C. under 7% CO2. They are treated with trypsin, washed with PBS, counted and pelleted. The pellet is taken up at 10^7 cells/ml in lysis buffer (10 mM sodium phosphate, pH 6.8-1% Igepal) and the suspension is treated with ultrasound for 10 seconds. After centrifugation for 30 minutes at 4000 rpm, the supernatant obtained constitutes the cell lysate used as tyrosinase source in the enzymatic assay.
The assays are carried out in duplicate in 384-well plates in a total volume of 50 μl. Each well contains: […]
The plate is incubated at 37° C. and a spectrophotometric reading is carried out at 520 nm after incubating for 6 hours. To avoid any possible absorption of the products, the system uses corrected absorbance (absorbance at time 6 h—absorbance at time zero). […]

## Cc1ccc(-c2c[nH]c(=S)[nH]2)s1 [Compound 3, 4-(5-methylthiophen-2-yl)-1,3-dihydroimidazole-2-thione]
  IC50: 300 nM

## Cc1csc(-c2c[nH]c(=S)[nH]2)c1 [Compound 4, 4-(4-methylthiophen-2-yl)-1,3-dihydro-imidazole-2-thione]
  IC50: 100 nM
